{"source": "patent US10513694B2", "about": "“Thienopyrrole compounds and uses thereof” (PROMEGA CORPORATION, priority 2015, dated 2019)", "key": {"Nluc enzyme": {"test_system": "Nluc enzyme", "test": "Multiplex RealTime-Glo / Caspase-Glo 3/7 in MCF7 cells", "assay_type": "cell-based", "method": "(§1) A) In a Corning 3570 assay plate, MCF7 cells were plated at 1,000 cells/well in 20 μL of cell culture media (EMEM supplemented with 0.01 mg/mL human recombinant insulin and 10% fetal bovine serum) and incubated in overnight. 10 μL of 4× REALTIME-GLO™ MT Cell Viability reagents (Promega Corporation) in media or 10 μL media only was added to the cells. 10 μL of 40 μM staurosporine in media or 10 μL media only (control) was added to the cells. The cells were incubated, and caspase activation monitored at 5.5 hrs post-reagent addition. To monitor caspase activation, 40 μL CASPASE-GLO® 3/7 Assay Reagent (Promega Corporation), either on its own (Caspase) or with 200 μM of JRW-0004, JRW-0013, or JRW-0042, was added. Reactions were incubated at RT, and luminescence was measured at 1 hr 10 min post-reagent addition on Tecan M1000 Pro plate reader.\n(§2) When comparing the signal generated from the CASPASE-GLO® reagent in media only versus the signal generated in media containing REALTIME-GLO™ reagent, the signal is higher in the multiplex reaction."}, "NANOLUC® enzyme": {"target": "NANOLUC® enzyme (Oplophorus gracilirostris, UniProt Q9GV45, A31E/A60N/A81I/F95D/I117V/K70R/L54V/L99Q/M102K/N193R/P142E/Q151K/Q38R/Q45L/V71I/Y165I)", "sequence (Q9GV45 28-196 with tags or gaps with the stated changes limits assumed)": "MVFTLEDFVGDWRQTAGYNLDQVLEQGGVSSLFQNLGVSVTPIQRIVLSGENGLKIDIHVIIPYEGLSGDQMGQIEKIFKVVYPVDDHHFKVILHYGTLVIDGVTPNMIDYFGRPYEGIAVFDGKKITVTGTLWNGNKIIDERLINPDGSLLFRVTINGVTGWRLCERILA", "test": "Inhibitor IC50 determination (NANOLUC enzyme, furimazine)", "assay_type": "biochemical", "settings": "IC50 (uM), 0.4 ng/ml NANOLUC enzyme, final furimazine 10 uM (at Km)"}, "Nluc": {"target": "Nluc (Oplophorus gracilirostris, UniProt Q9GV45, A31E/A60N/A81I/F95D/I117V/K70R/L54V/L99Q/M102K/N193R/P142E/Q151K/Q38R/Q45L/V71I/Y165I)", "sequence (Q9GV45 28-196 with tags or gaps with the stated changes limits assumed)": "as above", "test": "Multiplex RealTime-Glo / Caspase-Glo 3/7 in MCF7 cells", "assay_type": "cell-based", "parameters": "purchased Promega Corporation", "method": "as §1, §2"}, "Nluc luciferase": {"target": "Nluc luciferase (Oplophorus gracilirostris, UniProt Q9GV45, A31E/A60N/A81I/F95D/I117V/K70R/L54V/L99Q/M102K/N193R/P142E/Q151K/Q38R/Q45L/V71I/Y165I)", "sequence (Q9GV45 28-196 with tags or gaps with the stated changes limits assumed)": "as above", "test": "Inhibition of purified Nluc, dose and time dependence", "assay_type": "biochemical", "settings": "pro-substrate PBI-4442, DTT, TERGITOL, RT, various time points", "method": "A solution of purified Nluc and an Nluc pro-substrate (PBI-4442, which is described in US 2013/0130289), which is converted to an Nluc substrate upon reduction with DTT, were prepared in PBS buffer, pH 7.5. A 40 mM solution of DTT in PBS, pH 7.5 containing 1% TERGITOL was also prepared. Titrations of the thienopyrrole compounds JRW-0004, WZ141-88, WZ141-86, WZ141-74, WZ141-84, WZ141-89, WZ141-90, and WZ141-91 in the buffer containing DTT and TERGITOL were then prepared. An equal volume of the Nluc/pro-substrate solution was added to the thienopyrrole compound titrations in wells of an assay plate. The reactions were incubated at RT, and luminescence was measured at various time points on the Tecan M100 Pro plate reader (integration time 200 ms). IC50 values were determined using GraphPad Prism 6.03."}, "[1]": {"target": "T1, Nluc enzyme in REALTIME-GLO™ MT Cell Viability reagent (Oplophorus gracilirostris, UniProt Q9GV45, A31E/A60N/A81I/F95D/I117V/K70R/L54V/L99Q/M102K/N193R/P142E/Q151K/Q38R/Q45L/V71I/Y165I)", "T1 construct": "purchased Promega Corporation", "T1 sequence (Q9GV45 28-196 with tags or gaps with the stated changes limits assumed)": "as above", "test": "RealTime-Glo / Caspase-Glo multiplex in K562 cells", "assay_type": "cell-based", "settings": "Trail titration, 200 μM in CASPASE-GLO 3/7 reagent, 2 hrs RT", "method": "K562 were plated into wells of a Corning 3707 assay plate in 20 μL RPMI media at 2000 cells/well and incubated overnight. A Trail titration was prepared in 10 μL RPMI media and added to cells. Then either 10 μL 4× REALTIME-GLO™ MT Cell Viability reagent (RTCV; Promega Corporation) or media (control) was added to each well. The reactions were incubated at 37° C./5% CO2 at various time points, and luminescence was measured on a Tecan M1000 Pro plate reader. At 5 hrs, 40 μL CASPASE-GLO® 3/7 detection reagent (Promega Corporation) was added with or without 200 μM JRW-0004. The reaction was incubated for 2 hrs at room temperature (RT), and luminescence was measured on the Tecan M1000 Pro plate reader."}, "[2]": {"test_system": "firefly luciferase, e.g., ULTRAGLO® luciferase", "test": "Specificity of inhibition: firefly luciferase activity", "assay_type": "biochemical", "settings": "1 μM luciferin in Luciferase Detection Reagent; RT 2 hrs", "method": "The following example describes the specificity of disclosed thienopyrrole compounds, JRW-0004, JRW-0013, JRW-0006, JRW-0042, JRW-0138, and JRW-0147, to inhibit Nluc luciferase activity versus firefly luciferase activity, e.g., ULTRAGLO® luciferase. In a Corning 3570 assay plate, a solution containing 1 μM luciferin in Luciferase Detection Reagent (Promega Corporation V865/859) was added to the assay wells. An equal volume of titrations the thienopyrrole compounds, JRW-0004, JRW-0013, JRW-0006, JRW-0042, JRW-0138, and JRW-0147 were then added to the wells. The reactions were incubated at RT for 2 hrs, and luminescence was measured on Tecan M1000 Pro plate reader."}, "purified Nluc enzyme": {"target": "T2, purified Nluc enzyme (Oplophorus gracilirostris, UniProt Q9GV45, A31E/A60N/A81I/F95D/I117V/K70R/L54V/L99Q/M102K/N193R/P142E/Q151K/Q38R/Q45L/V71I/Y165I)", "T2 construct": "purchased Promega Corporation", "T2 sequence (Q9GV45 28-196 with tags or gaps with the stated changes limits assumed)": "as above", "assay_type": "biochemical", "settings": "titration up to 100 μM final; RT 2 hrs; pro-substrate PBI-4442 + DTT", "method": "In a Corning 3570 assay plate, purified Nluc enzyme (Promega Corporation), 20 mM DTT, and an Nluc pro-substrate (PBI-4442, which is described in US Patent Publication No. 2013/0130289), which is converted to an Nluc substrate upon reduction with DTT, was added. Compound titrations of JRW-0004, JRW-0013, JRW-0006, JRW-0042, JRW-0138, and JRW-0147 were then made (1:2 serial dilution in PBS, 11 points plus no inhibitor control, starting at 200 μM; 100 μM final concentration in reaction). Compound titrations were added in equal volume to the wells of the assay plate. The reactions were incubated at RT for 2 hrs, and luminescence was measured on Tecan M1000 Pro plate reader. Half-maximal inhibitor (thienopyrrole compound) concentrations (IC50s) were determined using GraphPad Prism 6.03."}, "[3]": {"settings": "10 μM Stauro vs Control, 200 μM compound"}, "[4]": {"settings": "CASPASE-GLO 3/7 reagent with 200 μM compound, 1 hr 10 min"}}, "note": "“Also recorded” adds a separate entry of the source.", "data": [{"compound": "CCN(C(=O)Cn1c(C(=O)OC)cc2sccc21)c1cccc(C)c1", "note": "[JRW-0004, methyl 4-(2-(ethyl(m-tolyl)amino)-2-oxoethyl)-4H-thieno[3,2-b]pyrrole-5-carboxylate]", "values": [{"measurement": "Fold Cont, Media only", "setting": "Nluc enzyme; [3]", "value": 5.89}, {"measurement": "Avg (luminescence), Media only, 10 μM Stauro", "setting": "Nluc enzyme; [4]", "value": 54589}, {"measurement": "Avg (luminescence), Media only, Control", "setting": "Nluc enzyme; [4]", "value": 9261}, {"measurement": "IC50", "setting": "NANOLUC® enzyme", "value": 1.1, "unit": "µM"}, {"measurement": "Fold Cont, Media containing RealTime-Glo", "setting": "Nluc; [3]", "value": 5.53}, {"measurement": "Avg (luminescence), Media containing RealTime-Glo, 10 μM Stauro", "setting": "Nluc; [4]", "value": 50266}, {"measurement": "Avg (luminescence), Media containing RealTime-Glo, Control", "setting": "Nluc; [4]", "value": 9090}, {"measurement": "Inhibition of Nluc luciferase, dose and time dependence (FIGS. 4-6)", "setting": "Nluc luciferase", "value": "inhibit Nluc luciferase in a dose- and time-dependent manner"}, {"measurement": "Inhibition of Nluc enzyme in RealTime-Glo reagent (FIG. 1)", "setting": "[1]", "value": "can inhibit the Nluc enzyme"}, {"measurement": "Inhibition of firefly luciferase activity (FIG. 3)", "setting": "[2]", "value": "do not inhibit firefly luciferase activity; also recorded: did not inhibit the firefly luciferase activity"}, {"measurement": "Inhibition of purified Nluc enzyme (FIG. 2)", "setting": "purified Nluc enzyme", "value": "capable of inhibiting purified Nluc enzyme"}]}]}
